Test results reported in patent publication US5460697A, “Method of pulping wood chips with a fungi using sulfite salt-treated wood chips” (priority 1994, dated 1995).
Read-outs that look alike come from different tables or passages of the source.

Tests used:
[1] = tested on: indigenous microorganisms; experiment: Effect of sulfite salts on indigenous microorganisms of unsterilized wood chips (plating); type: cell-based, indigenous microorganisms of unsterilized aspen wood chips; settings: for first test: whether the salt inhibits growth of indigenous microorganisms: pass / not pass; for inhibition at 600 µg/mL / inhibition at 1200 µg/mL: read-out: Inhibition Relative to control; for inhibition of growth of indigenous microorganisms (in words): unsterilized wood chips, overall statement
Procedure: Aspen wood chips (50 g O.D. basis) were soaked in 500 ml of water containing either 0 mg, 781 mg or 1562 mg sodium bisulfite for about 1 hour at room temperature. After soaking, water was drained from the chips.
During the 1 hour soaking the chips soaked up about 31 ml of water. Therefore, the final moisture content of wood was about 61% (wet weight basis) and the final concentration of each chemical on water basis was about 0 μg/ml, 600 μg/ml and 1200 μg/ml.
Three chips were pulled randomly from each flask and plated on potato dextrose agar and tryptic soy agar plates. These plates were incubated at 27° C. for 24 or 27 h and the contaminants were visually observed.
A panel of other sulfur-containing chemicals were analyzed for their ability to inhibit the growth of indigenous microorganisms on unsterilized wood chips in the manner described above. Table 2 describes the various concentrations of these chemicals and the percent inhibition relative to control plates observed.

[2] = tested on: indigenous microorganisms; settings: Lamar et al. 1990; cited from earlier work

Structure (SMILES) | first test: whether the salt inhibits growth of indigenous microorganisms [1] | Inhibition Relative to control ([1]; 600 μg/ml) | Inhibition Relative to control ([1]; 1200 μg/ml) | further results
O=S([O-])S(=O)[O-].[Na+].[Na+] [Sodium Hydrosulfite] | passed the first test | – | – | inhibition at 600 µg/mL [1]: 70%; inhibition at 1200 µg/mL [1]: 100%; inhibition of growth of indigenous microorganisms (in words) [1]: successfully inhibited the growth of microorganisms
O=S(=O)([O-])[O-].[Na+].[Na+] [Sodium Sulfate] | did not pass the test | 0% | 0% | –
O=S([O-])[O-].[Na+].[Na+] [Sodium Sulfite] | did not pass the test | 0% | 0% | –
O=S(=O)(O)SSS(=O)(=O)O [Sodium Tetrathionate] | – | – | – | inhibition at 600 µg/mL [1]: 0%; inhibition at 1200 µg/mL [1]: 0%
O=S([O-])([O-])=S.[Na+].[Na+] [Sodium Thiosulfate] | – | 0% | 0% | –
O=S(O)S(=O)(=O)O [Sodium meta-Bisulfite] | passed the first test | – | – | inhibition at 600 µg/mL ([1]; 600 μg/ml): 100%; inhibition at 1200 µg/mL ([1]; 1200 μg/ml): 100%; inhibition of growth of indigenous microorganisms (in words) [1]: successfully inhibited the growth of microorganisms
CBr [methyl bromide] | – | – | – | inhibition of indigenous microorganisms (in words) [2]: inhibit a number of indigenous microorganisms
O=S([O-])O.[K+] [potassium bisulfite] | passed the first test | – | – | –
